Test results from article PMC3665241, “Scaffold-Focused Virtual Screening: Prospective Application to the Discovery of TTK Inhibitors” (Journal of Chemical Information and Modeling, 2013).

How the values were obtained:
[1] = biological target: T1, GST-tagged recombinant human full-length TTK protein kinase (Homo sapiens, UniProt P33981); assay: TTK mobility shift microfluidics assay, single-concentration percent inhibition screen; assay type: biochemical; conditions: 12.5 nM TTK, 10 μM ATP, mean of duplicate ± SD
T1 construct: GST-tagged recombinant human full-length TTK protein kinase; purchased Invitrogen (Life Technologies Ltd., Paisley, U.K.)
T1 sequence (P33981 1-857): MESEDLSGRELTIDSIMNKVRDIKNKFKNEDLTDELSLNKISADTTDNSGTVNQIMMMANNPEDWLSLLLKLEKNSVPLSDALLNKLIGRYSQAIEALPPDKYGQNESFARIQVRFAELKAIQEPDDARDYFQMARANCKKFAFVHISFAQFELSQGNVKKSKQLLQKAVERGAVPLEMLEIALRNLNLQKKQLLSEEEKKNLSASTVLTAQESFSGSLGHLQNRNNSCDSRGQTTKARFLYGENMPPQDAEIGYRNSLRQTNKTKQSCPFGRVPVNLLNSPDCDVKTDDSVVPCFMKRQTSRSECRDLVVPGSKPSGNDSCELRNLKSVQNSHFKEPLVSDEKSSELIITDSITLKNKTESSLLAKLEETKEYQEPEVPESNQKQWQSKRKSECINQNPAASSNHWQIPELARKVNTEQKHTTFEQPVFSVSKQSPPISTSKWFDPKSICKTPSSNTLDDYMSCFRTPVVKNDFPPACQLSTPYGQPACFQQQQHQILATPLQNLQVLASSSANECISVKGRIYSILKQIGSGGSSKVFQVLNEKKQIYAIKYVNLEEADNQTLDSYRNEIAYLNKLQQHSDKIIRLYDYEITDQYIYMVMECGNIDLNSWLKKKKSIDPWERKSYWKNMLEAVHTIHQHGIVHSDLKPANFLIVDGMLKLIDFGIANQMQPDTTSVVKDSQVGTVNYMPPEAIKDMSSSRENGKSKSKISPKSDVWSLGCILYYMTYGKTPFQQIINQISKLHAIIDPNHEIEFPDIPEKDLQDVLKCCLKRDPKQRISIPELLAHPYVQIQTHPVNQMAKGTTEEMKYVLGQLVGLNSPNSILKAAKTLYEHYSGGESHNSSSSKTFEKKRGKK
Protocol: The TTK kinase activity was measured in a mobility shift microfluidics assay with the Caliper LabChip EZReader II (Caliper Life Sciences, Hopkinton, MA, U.S.A.). For the initial percent inhibition compound screen, all compounds were tested at 40 μM, and fragment-like compounds (MW < 300 Da) were also tested at 400 μM. A 2.14 μM stock of GST-tagged recombinant human full-length TTK protein kinase from Invitrogen (Invitrogen, Life Technologies Ltd., Paisley, U.K.) and custom synthesized peptide from Pepceuticals (Pepceuticals Ltd., Enderby, U.K.) with sequence 5-FAM-[…]-amide were used. […] For every 10 mL of stock buffer, one Roche EDTA free complete mini-protease inhibitor cocktail tablet (Roche, Basel, Switzerland) was added. TTK was used at a final concentration of 12.5 nM. The assay plate was sealed and incubated at room temperature for 60 min. The assay was stopped by addition of stop buffer which contained 100 mM HEPES (pH 7.3), 20 mM EDTA, and 0.05% (v/v) Brij-35. The assay plate was then analyzed using the EZReader II. Z′ for compounds at 40 μM was 0.48, and Z′ for compounds at 400 μM was 0.61.

[2] = biological target: T1, GST-tagged recombinant human full-length TTK protein kinase; assay: TTK mobility shift microfluidics assay, IC50 determination (3 nM TTK); assay type: biochemical
[3] = biological target: T2, TTK kinase domain (residues 519–808) (Homo sapiens, UniProt P33981); assay: Soaking of apo TTK kinase domain crystals with inhibitor, X-ray crystallography; assay type: binding; conditions: crystals soaked with 10–50 mM compound for 24 h
T2 construct: TTK kinase domain (residues 519–808); inferred from Ni-NTA purification with imidazole elution; made in house; host or cells: E. coli BL21 AI
T2 sequence (P33981 519-808): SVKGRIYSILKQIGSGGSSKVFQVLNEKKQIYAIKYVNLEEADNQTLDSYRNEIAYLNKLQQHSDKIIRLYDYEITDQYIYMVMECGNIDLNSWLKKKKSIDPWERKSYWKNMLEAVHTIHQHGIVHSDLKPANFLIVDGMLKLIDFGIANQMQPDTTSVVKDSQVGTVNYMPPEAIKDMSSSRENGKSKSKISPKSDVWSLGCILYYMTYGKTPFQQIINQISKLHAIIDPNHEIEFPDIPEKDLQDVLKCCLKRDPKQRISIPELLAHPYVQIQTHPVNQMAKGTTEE
Text: In recognition of the desirability of protein–ligand crystal structures to educate the efficient follow-up of fragment-like hit matter and our wish to determine the mode of binding of hits identified with the scaffold-focused virtual screen, we sought co-crystal structures of confirmed hits with TTK. To this end, apo crystals of TTK kinase domain were soaked in buffer solution containing the respective inhibitor (2–9). X-ray data were collected for all crystals, and the structures were solved using molecular replacement. We successfully obtained co-crystal structures of TTK with fragment-like hit compounds 3, 4, 5, and 7. […] A summary of crystallographic analysis is presented in Table 4, and the binding modes of compounds 3, 4, 5, and 7 are illustrated in Figure 7 with Fo–Fc electron density omit maps surrounding the ligand shown in green wire-mesh contoured at 3σ. In all four structures, the activation loop of TTK is disordered, possibly due to the presence of a PEG molecule bound to Lys553, a residue which would usually coordinate with Glu571 to help stabilize the activation loop (Lys553 is not shown in Figure 7 for clarity).
TTK was purified and crystallized as described previously.[26] Plasmids for expression of TTK were received from Stefan Knapp, Structural Genomics Consortium, Oxford, U.K. TTK kinase domain (residues 519–808) was expressed in E. coli BL21 AI competent cells (Invitrogen, Life Technologies Ltd., Paisley, U.K.). Cells were cultured in LB media containing kanamycin selection antibiotic and induced with 0.5 mM IPTG and 1g/L L-arabinose at an OD280 of 0.7. Cells were then incubated overnight at 18 °C with shaking at 225 rpm. Cells were harvested and resuspended in lysis buffer containing 50 mM HEPES pH 7.5, 500 mM NaCl, 10 mM imidazole, 5% (v/v) glycerol, lysozyme, and 1 Roche EDTA free complete protease inhibitor cocktail tablet (Roche, Basel, Switzerland) per 3 L of buffer. TTK was purified using Ni–NTA nickel affinity resin and washed in buffer containing 30 mM imidazole. TTK was then eluted from the resin with 250 mM imidazole. Eluate was concentrated using a Vivaspin concentrator with a 30 kDa molecular weight cutoff (GE Healthcare, Chalfont St. Giles, U.K.) and further purified on gel filtration column Superdex 200 16/60 (GE Healthcare, Chalfont St. Giles, U.K.) equilibrated in buffer containing 10 mM HEPES pH 7.5, 150 mM NaCl, 5 mM DTT, and 5 mM EDTA. The sample was concentrated to a final concentration of 8.9 mg/mL, snap frozen on dry ice, and stored at −80 °C until required.
Purified TTK was crystallized at 18 °C using the sitting drop vapor diffusion method with drops composed of 2 μL protein (8.9 mg/mL) and 2 μL reservoir solution placed over 200 μL reservoir solution of H2O/PEG300 (30–45% (v/v)) in 48 well plates. […]

inhibition at 40 µM ([1]; compound at 40 μM, 1% DMSO): 21.5 ± 2.12%
inhibition at 400 µM ([1]; compound at 400 μM (fragment-like, MW < 300 Da)): 66%
IC50 ([2]; 1% DMSO, 3 nM TTK, 10 μM ATP, duplicate on the same plate): 91.5 µM
LE (ligand efficiency) ([2]; from TTK IC50): 0.37
binding in ATP binding site of soaked TTK crystals (electron density) [3]: not bound
Structure (SMILES): c1ccc(-c2nc3cnccc3[nH]2)nc1 [Compound 6]
